According to patent US11851447B2, “Dinuclear platinum(II) compounds and methods of use thereof” (UNIVERSITY OF IOWA RESEARCH FOUNDATION, priority 2019, dated 2023):
Structures can show the parent of a compound that is named as a salt. Where two headings read alike, the source gives them in different places.

What was measured:
[1] = target: DNAse I; conditions: previously reported values (Jang et al., J. Biomol. Screen. 2015); cited from earlier work
[2] = target: DNAse I; assay: DNAse I inhibitor assay based on NIR emission of 4/QIII ensemble; assay type: biochemical; conditions: [4]=4 μM, [QIII]=8 μM, [DNAse I]=4 U/ml, NIR emission at 785 nm; read-out: IC50 (DNAse I inhibition)
Method: General Procedure for Multiwell DNAse I Assay. A reaction mixture (total volume of 100 μL) containing 4 (4 μM) and QIII (8 μM) was prepared in 9:1 Tris buffer (10 mM Tris-HCl, 0.25 mM MgCl2, 0.1 mM CaCl2, pH 7.5):DMSO. Tris buffer was prepared using nuclease-free water. The reaction mixtures were prepared in white 96-well plates (Costar, Corning, NY) and incubated at room temperature for 2 min. Varying concentrations of DNAse I prepared in Tris buffer (10 mM Tris-HCl, 0.25 mM MgCl2, 0.1 mM CaCl2, pH 7.5) were added to the reaction mixture and incubated at room temperature for 10 min. Fluorescence spectra were obtained using Agilent Cary Eclipse fluorescence spectrophotometer, λex=445 nm. NIR emission intensity at 785 nm was detected.
Determination of IC50 Values of DNAse I Inhibitors. DNAse I assay was performed as previously described in the presence of DNAse I (4 U) and various concentrations of the inhibitor. Stock solutions of the inhibitors were prepared in Tris buffer (10 mM Tris-HCl, pH 7.5). The IC50 values were calculated by plotting log[inhibitor] versus NIR emission intensity of 4. The dose-response curves were analyzed by nonlinear regression using GraphPad Prism 8.0 (GraphPad Software, Inc., La Jolla, CA, USA).

Structure (SMILES)	IC50 [1]	IC50 [2]
O=C(O)CN(CCN(CC(=O)O)CC(=O)O)CC(=O)O [EDTA]	190 µM	202 µM
N=C(N)NNc1ccc(NNC(=N)N)cc1 [JR-132, 1,4-phenylene-bis-aminoguanidine hydrochloride]	2.73 µM	2.29 µM
[Cl-].[Cl-].[Zn+2] [ZnCl2]	18 µM	20.7 µM
